Data as given in PubChem BioAssay (NCI).
Several values for one entry are separate records, joined by “and”; a condition that tells them apart may be missing. Equal entries are not always repeated.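 In this assay, cells in 96-well plates receive the compound at five concentrations for 48 hours. Endpoints are linearly interpolated between the surrounding concentrations. Abbreviation: GI50, concentration required for 50% inhibition of growth. TGI marks complete inhibition of growth.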

System: KM20L2 colon
Assay: NCI-60 cell line screen, 48 h

| Structure (SMILES) | TGI [µM] |
| --- | --- |
| Cc1ccc(C2CC(c3ccco3)=NN2c2ccccc2)o1 (stereo unspecified) | > 100 |
| C/C(=C1/CCCC2(N=NCC2c2ccccc2)C1=O)c1ccccc1 (stereo unspecified) | > 100 |
| CCN1CCN(c2ccc(Nc3ccnc4ccc5nn(C)nc5c34)cc2)CC1 | 27.4 |
| OCC1OC(n2cnc3c2NC=NC[C@H]3O)C(O)C1O (stereo partly specified) | > 450 |
| O=[N+]([O-])c1ccc(-n2nnc(C3=NCCCN3)c2-c2ccc(Cl)cc2)cc1 | > 100 |
| COc1cc2c(cc1OC)C(O)[C@H](Br)C(C)(C)O2 (stereo partly specified) | > 100 |
| CCCCCC(C[N+]1(C)CCOCC1)C(=O)/C=C/c1ccccc1 (stereo unspecified) | 32.9 |

System: LXFL 529 NSCLC
Assay: NCI-60 cell line screen, 48 h

| Structure (SMILES) | TGI [µM] |
| --- | --- |
| O=C1C(Cl)C(c2ccccc2)N1n1cnc2ccccc2c1=O (stereo unspecified) | > 100 |
| COC(=O)c1ccc(/C=C2\N=C(C)OC2=O)cc1 | > 100 |
| CCCCN1C=CN2c3nc4cc(C)c(C)cc4n3C(C(=O)OC)=C(C(=O)OC)C12 (stereo unspecified) | > 100 |
| COC(=O)C(=C/c1ccc(OC)cc1)/C(C(=O)O)=C(/C)c1ccccc1 | > 100 |
| CCOC(=O)C(N=Nc1ccc(S(N)(=O)=O)cc1)C(C)=O (stereo unspecified) | > 100 |
| Cc1ccc(C2CC(c3ccco3)=NN2c2ccccc2)o1 (stereo unspecified) | > 100 |
| C/C(=C1/CCCC2(N=NCC2c2ccccc2)C1=O)c1ccccc1 (stereo unspecified) | 65.1 |
| CCN1CCN(c2ccc(Nc3ccnc4ccc5nn(C)nc5c34)cc2)CC1 | 23.8 |
| O=[N+]([O-])c1ccc(-n2nnc(C3=NCCCN3)c2-c2ccc(Cl)cc2)cc1 | > 100 |
| COc1cc2c(cc1OC)C(O)[C@H](Br)C(C)(C)O2 (stereo partly specified) | > 100 |
| CCCCCC(C[N+]1(C)CCOCC1)C(=O)/C=C/c1ccccc1 (stereo unspecified) | 11.5 |

System: M19-MEL melanoma
Assay: NCI-60 cell line screen, 48 h

| Structure (SMILES) | TGI | GI50 [µM] |
| --- | --- | --- |
| O=C1C(Cl)C(c2ccccc2)N1n1cnc2ccccc2c1=O (stereo unspecified) | > 100 µM | – |
| CN(C)C(=O)OCOC(=O)N(C)C | > 100 µM | – |
| COC(=O)c1ccc(/C=C2\N=C(C)OC2=O)cc1 | > 100 µM | – |
| O=C1NC(=O)C(CCO)(c2ccccc2)C(=O)N1 | > 100 µM | – |
| CCCCN1C=CN2c3nc4cc(C)c(C)cc4n3C(C(=O)OC)=C(C(=O)OC)C12 (stereo unspecified) | > 100 µM | – |
| COC(=O)C(=C/c1ccc(OC)cc1)/C(C(=O)O)=C(/C)c1ccccc1 | > 100 µM | – |
| C=C1C(=O)O[C@H]2[C@H]1[C@@H](OC(=O)C=C(C)C)CC1=C[C@@H](C[C@@]3(C)O[C@@H]23)OC1=O | 8.29 µM and 16.7 µM | 4.37 |
| CCOC(=O)C(N=Nc1ccc(S(N)(=O)=O)cc1)C(C)=O (stereo unspecified) | > 100 µM | – |
| Cc1ccc(C2CC(c3ccco3)=NN2c2ccccc2)o1 (stereo unspecified) | > 100 µM | – |
| C/C(=C1/CCCC2(N=NCC2c2ccccc2)C1=O)c1ccccc1 (stereo unspecified) | 65 µM | – |
| CCN1CCN(c2ccc(Nc3ccnc4ccc5nn(C)nc5c34)cc2)CC1 | 29.8 µM | – |
| OCC1OC(n2cnc3c2NC=NC[C@H]3O)C(O)C1O (stereo partly specified) | > 450 µM | – |
| O=[N+]([O-])c1ccc(-n2nnc(C3=NCCCN3)c2-c2ccc(Cl)cc2)cc1 | > 100 µM | – |
| COc1cc2c(cc1OC)C(O)[C@H](Br)C(C)(C)O2 (stereo partly specified) | > 100 µM | – |
| CCCCCC(C[N+]1(C)CCOCC1)C(=O)/C=C/c1ccccc1 (stereo unspecified) | 32 µM | – |

System: SK-MEL-2 melanoma
Assay: NCI-60 cell line screen, 48 h

| Structure (SMILES) | TGI | GI50 [µM] |
| --- | --- | --- |
| O=C1C(Cl)C(c2ccccc2)N1n1cnc2ccccc2c1=O (stereo unspecified) | > 100 µM | – |
| CN(C)C(=O)OCOC(=O)N(C)C | > 100 µM | – |
| O=C1NC(=O)C(CCO)(c2ccccc2)C(=O)N1 | > 100 µM | – |
| CCCCN1C=CN2c3nc4cc(C)c(C)cc4n3C(C(=O)OC)=C(C(=O)OC)C12 (stereo unspecified) | > 100 µM | – |
| COC(=O)C(=C/c1ccc(OC)cc1)/C(C(=O)O)=C(/C)c1ccccc1 | > 100 µM | – |
| C=C1C(=O)O[C@H]2[C@H]1[C@@H](OC(=O)C=C(C)C)CC1=C[C@@H](C[C@@]3(C)O[C@@H]23)OC1=O | 17.6 µM and 30 µM | 13 |
| CCOC(=O)C(N=Nc1ccc(S(N)(=O)=O)cc1)C(C)=O (stereo unspecified) | > 100 µM | – |
| Cc1ccc(C2CC(c3ccco3)=NN2c2ccccc2)o1 (stereo unspecified) | > 100 µM | – |
| C/C(=C1/CCCC2(N=NCC2c2ccccc2)C1=O)c1ccccc1 (stereo unspecified) | 42.1 µM | – |
| OCC1OC(n2cnc3c2NC=NC[C@H]3O)C(O)C1O (stereo partly specified) | > 450 µM | – |
| O=[N+]([O-])c1ccc(-n2nnc(C3=NCCCN3)c2-c2ccc(Cl)cc2)cc1 | > 100 µM | – |
| COc1cc2c(cc1OC)C(O)[C@H](Br)C(C)(C)O2 (stereo partly specified) | > 100 µM | – |
| CCCCCC(C[N+]1(C)CCOCC1)C(=O)/C=C/c1ccccc1 (stereo unspecified) | 29.5 µM | – |

System: SNB-78 CNS
Assay: NCI-60 cell line screen, 48 h

| Structure (SMILES) | TGI | GI50 |
| --- | --- | --- |
| O=C1C(Cl)C(c2ccccc2)N1n1cnc2ccccc2c1=O (stereo unspecified) | > 100 µM | – |
| CN(C)C(=O)OCOC(=O)N(C)C | > 100 µM | – |
| O=C1NC(=O)C(CCO)(c2ccccc2)C(=O)N1 | > 100 µM | – |
| CCCCN1C=CN2c3nc4cc(C)c(C)cc4n3C(C(=O)OC)=C(C(=O)OC)C12 (stereo unspecified) | > 100 µM | – |
| COC(=O)C(=C/c1ccc(OC)cc1)/C(C(=O)O)=C(/C)c1ccccc1 | > 100 µM | – |
| C=C1C(=O)O[C@H]2[C@H]1[C@@H](OC(=O)C=C(C)C)CC1=C[C@@H](C[C@@]3(C)O[C@@H]23)OC1=O | 15.1 µM and 40.2 µM | 2.35 µM and 10.6 µM |
| CCOC(=O)C(N=Nc1ccc(S(N)(=O)=O)cc1)C(C)=O (stereo unspecified) | > 100 µM | – |
| Cc1ccc(C2CC(c3ccco3)=NN2c2ccccc2)o1 (stereo unspecified) | > 100 µM | – |
| C/C(=C1/CCCC2(N=NCC2c2ccccc2)C1=O)c1ccccc1 (stereo unspecified) | 90.2 µM | – |
| CCN1CCN(c2ccc(Nc3ccnc4ccc5nn(C)nc5c34)cc2)CC1 | 33.8 µM | – |
| OCC1OC(n2cnc3c2NC=NC[C@H]3O)C(O)C1O (stereo partly specified) | > 450 µM | – |
| O=[N+]([O-])c1ccc(-n2nnc(C3=NCCCN3)c2-c2ccc(Cl)cc2)cc1 | > 100 µM | – |
| CCCCCC(C[N+]1(C)CCOCC1)C(=O)/C=C/c1ccccc1 (stereo unspecified) | 46.9 µM | – |

System: UACC-257 melanoma
Assay: NCI-60 cell line screen, 48 h

| Structure (SMILES) | TGI [µM] |
| --- | --- |
| O=C1C(Cl)C(c2ccccc2)N1n1cnc2ccccc2c1=O (stereo unspecified) | > 100 |
| CN(C)C(=O)OCOC(=O)N(C)C | > 100 |
| O=C1NC(=O)C(CCO)(c2ccccc2)C(=O)N1 | > 100 |
| CCCCN1C=CN2c3nc4cc(C)c(C)cc4n3C(C(=O)OC)=C(C(=O)OC)C12 (stereo unspecified) | > 100 |
| COC(=O)C(=C/c1ccc(OC)cc1)/C(C(=O)O)=C(/C)c1ccccc1 | > 100 |
| C=C1C(=O)O[C@H]2[C@H]1[C@@H](OC(=O)C=C(C)C)CC1=C[C@@H](C[C@@]3(C)O[C@@H]23)OC1=O | 6.88 |
| CCOC(=O)C(N=Nc1ccc(S(N)(=O)=O)cc1)C(C)=O (stereo unspecified) | > 100 |
| C/C(=C1/CCCC2(N=NCC2c2ccccc2)C1=O)c1ccccc1 (stereo unspecified) | 52.7 |
| CCN1CCN(c2ccc(Nc3ccnc4ccc5nn(C)nc5c34)cc2)CC1 | 30.7 |
| OCC1OC(n2cnc3c2NC=NC[C@H]3O)C(O)C1O (stereo partly specified) | > 450 |
| O=[N+]([O-])c1ccc(-n2nnc(C3=NCCCN3)c2-c2ccc(Cl)cc2)cc1 | > 100 |
| COc1cc2c(cc1OC)C(O)[C@H](Br)C(C)(C)O2 (stereo partly specified) | > 100 |
| CCCCCC(C[N+]1(C)CCOCC1)C(=O)/C=C/c1ccccc1 (stereo unspecified) | 27.6 |

System: XF 498 CNS
Assay: NCI-60 cell line screen, 48 h

| Structure (SMILES) | TGI | GI50 [µM] |
| --- | --- | --- |
| O=C1C(Cl)C(c2ccccc2)N1n1cnc2ccccc2c1=O (stereo unspecified) | > 100 µM | – |
| CN(C)C(=O)OCOC(=O)N(C)C | > 100 µM | – |
| COC(=O)c1ccc(/C=C2\N=C(C)OC2=O)cc1 | > 100 µM | – |
| O=C1NC(=O)C(CCO)(c2ccccc2)C(=O)N1 | > 100 µM | – |
| CCCCN1C=CN2c3nc4cc(C)c(C)cc4n3C(C(=O)OC)=C(C(=O)OC)C12 (stereo unspecified) | > 100 µM | – |
| COC(=O)C(=C/c1ccc(OC)cc1)/C(C(=O)O)=C(/C)c1ccccc1 | > 100 µM | – |
| C=C1C(=O)O[C@H]2[C@H]1[C@@H](OC(=O)C=C(C)C)CC1=C[C@@H](C[C@@]3(C)O[C@@H]23)OC1=O | 3.79 µM and 4.51 µM | 2.4 |
| CCOC(=O)C(N=Nc1ccc(S(N)(=O)=O)cc1)C(C)=O (stereo unspecified) | > 100 µM | – |
| Cc1ccc(C2CC(c3ccco3)=NN2c2ccccc2)o1 (stereo unspecified) | > 100 µM | – |
| C/C(=C1/CCCC2(N=NCC2c2ccccc2)C1=O)c1ccccc1 (stereo unspecified) | 49.2 µM | – |
| CCN1CCN(c2ccc(Nc3ccnc4ccc5nn(C)nc5c34)cc2)CC1 | 26.9 µM | – |
| OCC1OC(n2cnc3c2NC=NC[C@H]3O)C(O)C1O (stereo partly specified) | > 450 µM | – |
| O=[N+]([O-])c1ccc(-n2nnc(C3=NCCCN3)c2-c2ccc(Cl)cc2)cc1 | > 100 µM | – |
| COc1cc2c(cc1OC)C(O)[C@H](Br)C(C)(C)O2 (stereo partly specified) | > 100 µM | – |
| CCCCCC(C[N+]1(C)CCOCC1)C(=O)/C=C/c1ccccc1 (stereo unspecified) | 28.3 µM | – |
